Laboratory results reported in patent US8030300B2, “Ligands for nicotinic acetylcholine receptors, and methods of making and using them” (priority 2003, dated 2011).
Read-outs that look alike come from different tables or passages of the source.

Legend:
Assay in all cases: biochemical
Assay type in all cases: binding
[1] = biological target: T1, receptors in rat forebrain (mainly α4β2) (Rattus norvegicus, UniProt P09483+P12390)
T1 construct: from tissue; host or cells: rat forebrain homogenate
Description: (§1) In order to assess the steric and hydropathic effects of the C-5 substituents of the pyridine on the binding affinity and subtype-selectivity at neuronal nicotinic acetylcholine receptors. […] The binding affinity ratios for a ligand, calculated from its affinities at an α subunit paired with either the β2 osubunit or the β4 subunit, represents a measure of the selectivity of that ligand with regard to the β subunits.
In Vitro Inhibition of ^3H-Epibatidin Binding
The high affinity binding site for ^3H-epibatidin is most certainly binding to the α4β2 subtype of nicotinic receptors. The identity of the low affinity site is still believed to be unknown.
Tissue preparation: Preparations may be performed at 0-4° C. unless otherwise indicated. […] The tissue suspension may then be centrifuged at 27,000×g for 10 min. The supernatant is then discarded and the pellet may then be washed three times by centrifugation at 27,000×g for 10 min in 20 mL fresh buffer, and the final pellet may be resuspended in fresh buffer (400 mL per g of original tissue) and used for binding assays.
Assay: Aliquots of 2.0 mL homogenate may be added to 0.100 mL of test solution and 0.100 mL of ^3H-epibatidin (0.3 nM, final concentration), mixed and incubated for 60 min at room temperature. […] The amount of radioactivity on the filters may be determined by conventional liquid scintillation counting. Specific binding is total binding minus non-specific binding.

α2β2 nAChR subtype = biological target: T2, α2β2 nAChR subtype (Rattus norvegicus, UniProt P12389+P12390)
T2 construct: expressed in transfected cells
T2 sequence (P12390 25-500): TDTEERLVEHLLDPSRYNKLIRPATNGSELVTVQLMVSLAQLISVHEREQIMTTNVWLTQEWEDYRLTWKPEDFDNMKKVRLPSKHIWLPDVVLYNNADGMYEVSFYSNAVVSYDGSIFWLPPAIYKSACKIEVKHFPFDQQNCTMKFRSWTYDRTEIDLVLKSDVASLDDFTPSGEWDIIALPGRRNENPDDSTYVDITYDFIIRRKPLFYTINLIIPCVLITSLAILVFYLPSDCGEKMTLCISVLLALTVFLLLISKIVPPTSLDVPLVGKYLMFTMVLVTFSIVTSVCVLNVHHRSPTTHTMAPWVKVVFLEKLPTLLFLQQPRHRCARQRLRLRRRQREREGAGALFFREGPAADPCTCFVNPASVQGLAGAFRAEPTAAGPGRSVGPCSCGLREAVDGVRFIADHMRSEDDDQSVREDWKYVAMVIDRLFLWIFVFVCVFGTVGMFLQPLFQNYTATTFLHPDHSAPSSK
T2 sequence (P12389 28-511): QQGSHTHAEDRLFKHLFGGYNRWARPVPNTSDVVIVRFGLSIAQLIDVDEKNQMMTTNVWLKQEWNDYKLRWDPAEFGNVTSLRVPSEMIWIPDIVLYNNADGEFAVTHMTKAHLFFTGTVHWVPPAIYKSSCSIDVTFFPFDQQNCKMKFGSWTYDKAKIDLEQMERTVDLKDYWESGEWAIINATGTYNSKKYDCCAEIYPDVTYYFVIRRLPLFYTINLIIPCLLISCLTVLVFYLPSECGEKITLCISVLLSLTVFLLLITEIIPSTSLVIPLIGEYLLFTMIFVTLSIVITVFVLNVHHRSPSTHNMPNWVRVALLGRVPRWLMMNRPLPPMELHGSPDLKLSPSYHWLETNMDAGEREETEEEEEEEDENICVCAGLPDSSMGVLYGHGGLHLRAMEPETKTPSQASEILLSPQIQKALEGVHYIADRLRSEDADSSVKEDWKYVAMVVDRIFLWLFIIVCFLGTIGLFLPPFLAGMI
Description: as §1

α2β4 nAChR subtype = biological target: T3, α2β4 nAChR subtype (Rattus norvegicus, UniProt P12389+P12392)
T3 construct: expressed in transfected cells
T3 sequence (P12389 28-511): as above
T3 sequence (P12392 21-495): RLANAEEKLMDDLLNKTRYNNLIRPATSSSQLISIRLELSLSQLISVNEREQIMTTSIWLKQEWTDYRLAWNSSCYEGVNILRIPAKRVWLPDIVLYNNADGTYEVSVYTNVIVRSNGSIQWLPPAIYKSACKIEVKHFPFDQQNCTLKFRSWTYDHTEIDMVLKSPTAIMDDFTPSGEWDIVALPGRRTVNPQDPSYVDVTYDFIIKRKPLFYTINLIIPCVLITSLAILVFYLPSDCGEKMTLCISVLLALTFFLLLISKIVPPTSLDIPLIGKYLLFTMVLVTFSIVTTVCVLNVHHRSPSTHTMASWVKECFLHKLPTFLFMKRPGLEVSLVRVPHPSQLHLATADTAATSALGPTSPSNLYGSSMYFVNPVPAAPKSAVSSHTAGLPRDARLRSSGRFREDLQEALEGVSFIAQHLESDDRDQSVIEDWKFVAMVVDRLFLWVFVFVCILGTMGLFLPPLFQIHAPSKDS
Description: as §1

α4β2 nAChR subtype = biological target: T4, α4β2 nAChR subtype (Rattus norvegicus, UniProt P09483+P12390)
T4 construct: expressed in transfected cells
T4 sequence (P12390 25-500): as the sequence (P12390 25-500) above
T4 sequence (P09483 31-630): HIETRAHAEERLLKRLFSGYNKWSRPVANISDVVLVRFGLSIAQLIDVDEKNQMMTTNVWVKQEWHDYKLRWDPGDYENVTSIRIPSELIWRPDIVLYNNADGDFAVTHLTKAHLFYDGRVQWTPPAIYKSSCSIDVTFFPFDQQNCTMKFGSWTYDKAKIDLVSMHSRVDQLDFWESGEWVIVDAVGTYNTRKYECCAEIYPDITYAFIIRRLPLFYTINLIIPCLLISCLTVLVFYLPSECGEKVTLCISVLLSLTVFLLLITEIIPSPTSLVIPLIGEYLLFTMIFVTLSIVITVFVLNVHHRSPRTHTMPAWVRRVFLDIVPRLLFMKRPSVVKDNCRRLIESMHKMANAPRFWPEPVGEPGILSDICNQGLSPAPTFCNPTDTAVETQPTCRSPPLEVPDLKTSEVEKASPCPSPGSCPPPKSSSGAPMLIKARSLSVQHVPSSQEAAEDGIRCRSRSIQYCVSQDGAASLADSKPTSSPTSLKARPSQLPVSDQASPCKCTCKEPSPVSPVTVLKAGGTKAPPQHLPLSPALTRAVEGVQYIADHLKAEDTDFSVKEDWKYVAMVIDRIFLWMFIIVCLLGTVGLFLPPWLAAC
Description: as §1

α4β4 nAChR subtype = biological target: T5, α4β4 nAChR subtype (Rattus norvegicus, UniProt P09483+P12392)
T5 construct: expressed in transfected cells
T5 sequence (P12392 21-495): as the sequence (P12392 21-495) above
T5 sequence (P09483 31-630): as the sequence (P09483 31-630) above
Description: as §1

α3β4 nAChR subtype = biological target: T6, α3β4 nAChR subtype (Rattus norvegicus, UniProt P04757+P12392)
T6 construct: expressed in transfected cells
T6 sequence (P04757 26-499): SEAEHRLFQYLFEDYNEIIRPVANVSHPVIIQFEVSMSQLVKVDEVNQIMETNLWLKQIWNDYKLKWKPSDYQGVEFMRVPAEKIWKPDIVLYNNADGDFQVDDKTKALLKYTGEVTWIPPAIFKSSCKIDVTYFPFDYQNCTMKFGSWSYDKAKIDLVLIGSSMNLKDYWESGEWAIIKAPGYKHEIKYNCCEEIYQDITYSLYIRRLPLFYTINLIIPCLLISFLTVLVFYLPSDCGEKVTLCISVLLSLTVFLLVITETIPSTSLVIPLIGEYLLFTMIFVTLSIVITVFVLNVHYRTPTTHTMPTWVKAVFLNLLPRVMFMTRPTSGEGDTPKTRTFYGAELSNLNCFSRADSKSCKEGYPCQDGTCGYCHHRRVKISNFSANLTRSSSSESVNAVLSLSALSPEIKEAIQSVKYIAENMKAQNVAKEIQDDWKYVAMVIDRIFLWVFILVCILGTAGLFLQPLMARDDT
T6 sequence (P12392 21-495): as the sequence (P12392 21-495) above
Description: as §1

α3β2 nAChR subtype = biological target: T7, α3β2 nAChR subtype (Rattus norvegicus, UniProt P04757+P12390)
T7 construct: expressed in transfected cells
T7 sequence (P12390 25-500): as the sequence (P12390 25-500) above
T7 sequence (P04757 26-499): as the sequence (P04757 26-499) above
Description: as §1

[2] = Ki α4β2*, Table 5, *Rat forebrain, mainly α4β2
[3] = Ki α2β2, Table 5, rat nAChR subtypes
[4] = Ki α2β4, Table 5, rat nAChR subtypes
[5] = Ki α4β2, Table 5, rat nAChR subtypes
[6] = Ki α4β4, Table 5, rat nAChR subtypes
[7] = Ki α3β4, Table 5, rat nAChR subtypes
[8] = Ki α3β2, Table 5, rat nAChR subtypes

T1 sequence (P09483 31-630): as the sequence (P09483 31-630) above
T1 sequence (P12390 25-500): as the sequence (P12390 25-500) above

Row | SMILES | Ki [1, 2] [µM] | Ki (α2β2 nAChR subtype; [3]) [µM] | Ki (α2β4 nAChR subtype; [4]) [µM] | Ki (α4β2 nAChR subtype; [5]) [µM] | Ki (α4β4 nAChR subtype; [6]) [µM] | Ki (α3β4 nAChR subtype; [7]) [µM] | Ki (α3β2 nAChR subtype; [8]) [µM] | further results
1 | Clc1ccc(C2CC3CCC2N3CCCN2C3CCC2C(c2ccc(Cl)nc2)C3)cn1 (centres unmarked) [Ligand 59b, Propane-1,3-N,N′-bisepibatidine] | – | – | – | – | – | – | – | Ki ([1]; Table 5, *Rat forebrain, mainly α4β2, read-out: Ki α4β2*): 0.0101 µM; Ki (α2β2 nAChR subtype; Table 5, rat nAChR subtypes, read-out: Ki α2β2): 0.00608 µM; Ki (α2β4 nAChR subtype; Table 5, rat nAChR subtypes, read-out: Ki α2β4): 0.0157 µM; Ki (α4β2 nAChR subtype; Table 5, rat nAChR subtypes, read-out: Ki α4β2): 0.00866 µM; Ki (α4β4 nAChR subtype; Table 5, rat nAChR subtypes, read-out: Ki α4β4): 0.0233 µM; Ki (α3β4 nAChR subtype; Table 5, rat nAChR subtypes, read-out: Ki α3β4): 0.0629 µM; Ki (α3β2 nAChR subtype; Table 5, rat nAChR subtypes, read-out: Ki α3β2): 0.00517 µM
2 | O=c1cccc2n1C[C@H]1C[C@@H]2CN(CCCCCN2C[C@@H]3C[C@H](C2)c2cccc(=O)n2C3)C1 [ZW-19] | – | – | – | – | – | – | – | Ki [1]: 0.603 µM; Ki (α2β2 nAChR subtype): 0.24 µM; Ki (α2β4 nAChR subtype): 1.43 µM; Ki (α4β2 nAChR subtype): 0.383 µM; Ki (α4β4 nAChR subtype): 0.468 µM; Ki (α3β4 nAChR subtype): > 10 µM; Ki (α3β2 nAChR subtype): > 1 µM
3 | CN1CCC[C@H]1COc1cccnc1 [Ligand 8, 3-(1-Methyl-2(S)-pyrrolidinylmethoxy)pyridine, reference compound] | 0.00515 | 0.00107 | 0.209 | 0.0014 | 0.205 | 0.835 | 0.00904 | Ki ([1]; Ki α4β2**, Table 6, **Forebrain mainly α4β2, [3H]-EB 0.099 nM, 0.091 nM, n = 1): 0.00515 µM; Ki (α2β2 nAChR subtype; Ki α2β2, Table 6, [3H]-EB 0.099 nM, 0.091 nM, ligand 0.00197-100 μM, n = 1): 0.00107 µM; Ki (α2β4 nAChR subtype; Ki α2β4, Table 6, [3H]-EB 0.099 nM, 0.091 nM, ligand 0.00197-100 μM, n = 1): 0.209 µM; Ki (α4β2 nAChR subtype; Ki α4β2, Table 6, [3H]-EB 0.099 nM, 0.091 nM, ligand 0.00197-100 μM, n = 1): 0.0014 µM; Ki (α4β4 nAChR subtype; Ki α4β4, Table 6, [3H]-EB 0.099 nM, 0.091 nM, ligand 0.00197-100 μM, n = 1): 0.205 µM; Ki (α3β4 nAChR subtype; Ki α3β4, Table 6, [3H]-EB 0.099 nM, 0.091 nM, ligand 0.00197-100 μM, n = 1): 0.835 µM; Ki (α3β2 nAChR subtype; Ki α3β2, Table 6, [3H]-EB 0.099 nM, 0.091 nM, ligand 0.00197-100 μM, n = 1): 0.00904 µM
4 | CN1CCC[C@H]1COc1cncc(C#CCCCCO)c1 [Ligand 16] | – | – | – | – | – | – | – | Ki [1]: 0.00356 µM; Ki (α2β2 nAChR subtype): 0.00287 µM; Ki (α2β4 nAChR subtype): 3.23 µM; Ki (α4β2 nAChR subtype): 0.00081 µM; Ki (α4β4 nAChR subtype): 1.27 µM; Ki (α3β4 nAChR subtype): 40.2 µM; Ki (α3β2 nAChR subtype): 0.0126 µM
5 | FCCCCC#Cc1cncc(OC[C@@H]2CCCN2)c1 [Ligand 42, 5-(6-Fluoro-1-hexynyl)-3-(2(S)-pyrrolidinylmethoxy)pyridine] | 0.00345 | 0.0035 | 0.68 | 0.000907 | 0.721 | 7.58 | 0.00527 | –
6 | FC1CC2NC1CC2c1ccc(Cl)nc1 (stereo not drawn) [Ligand 10, 2-exo-(2-Chloro-5-pyridyl)-5-exo-fluoro-7-azabicyclo[2.2.1]heptane] | 0.00211 | 0.000864 | 0.00559 | 0.00173 | 0.00123 | 0.0104 | 0.000646 | –
7 | Clc1cc2c(cn1)C1C3CCC(N3)C1CC2 (centres unmarked) [Ligand 37a] | 0.339 | 0.294 | 0.693 | 0.0674 | 0.672 | 2.17 | 0.345 | Ki (α2β2 nAChR subtype; Table 3, mean ± SEM of 3 (nicotine, 1: 3 to 6) independent measurements, read-out: Ki α2β2): 0.29 µM; Ki (α2β4 nAChR subtype; Table 3, mean ± SEM of 3 (nicotine, 1: 3 to 6) independent measurements, read-out: Ki α2β4): 0.717 µM; Ki (α4β2 nAChR subtype; Table 3, mean ± SEM of 3 (nicotine, 1: 3 to 6) independent measurements, read-out: Ki α4β2): 0.073 µM; Ki (α4β4 nAChR subtype; Table 3, mean ± SEM of 3 (nicotine, 1: 3 to 6) independent measurements, read-out: Ki α4β4): 0.637 µM; Ki (α3β4 nAChR subtype; Table 3, mean ± SEM of 3 (nicotine, 1: 3 to 6) independent measurements, read-out: Ki α3β4): 2.28 µM; Ki (α3β2 nAChR subtype; Table 3, mean ± SEM of 3 (nicotine, 1: 3 to 6) independent measurements, read-out: Ki α3β2): 0.354 µM
8 | OCCCCC#Cc1cncc(C2CC3CCC2N3)c1 (stereo not drawn) [Ligand 31, 2-exo-(5-(6-Hydroxy-1-hexynyl)-3-pyridyl)-7-azabicyclo[2.2.1]heptane] | 0.000215 | 0.000352 | 0.0451 | 0.000166 | 0.0154 | 0.266 | 0.000146 | –
9 | OC1C2CCC(N2)C1c1ccc(Cl)nc1 (single isomer, unassigned) [Ligand 2] | 2.06 | 0.814 | 0.617 | 2.37 | 0.515 | 1.17 | 1.13 | –
10 | CCCCCC#Cc1ccc(C2CC3CCC2N3)cn1 (centres unmarked) [Ligand 34] | 0.052 | 0.0169 | 0.0674 | 0.0677 | 0.0618 | 0.0954 | 0.0198 | –
